# Earlier results as cited in patent US6991777B2, “Methods for in vivo evaluation of physiological conditions and/or organ or system function including methods to evaluate cardiopulmonary disorders such as chronic heart failure using polarized 129 Xe” (Medi-Physics, Inc., priority 2001, dated 2006).
# Assays:
# [1] = after inhalation into the lungs
# [2] = dogs, whole lung
smiles,measurement,setting,value
"[Xe] [polarized ^129Xe, Xenon-129]",diffusion constant of xenon in water,,about 2×10^−5 cm^2/s
same,fraction of inhaled gas that transits into the pulmonary blood,[1],roughly 0.3 % per/second
same,time until Xe begins to dissolve into the pulmonary blood stream,[1],under 100 ms
same,"time constant τ (uptake and/or dissolved gas-exchange transit time), blood compartment",[2]; blood compartment,~70 ms
same,"time constant τ (uptake and/or dissolved gas-exchange transit time), tissue compartment",[2]; tissue compartment,about 61 ms
